Results: patent US7951595B2, “Methods for screening modulators of SLC17-type anion transport activity” (National University Corporation Okayama University, priority 2007, dated 2011)

What was measured:
[1] = biological target: T1, mouse SLC17A9 (mSLC17A9) (Mus musculus, UniProt Q8VCL5); assay: ATP transport by reconstituted mSLC17A9 protein proteoliposomes; type: biochemical; conditions: added at 2 mM, uptake for 2 minutes, FIG. 22
T1 construct: His6 (from pDEST10 vector) (N); made in house; host or cells: insect cells, baculovirus system (Sf9 named for virus production)
T1 sequence (Q8VCL5 1-447): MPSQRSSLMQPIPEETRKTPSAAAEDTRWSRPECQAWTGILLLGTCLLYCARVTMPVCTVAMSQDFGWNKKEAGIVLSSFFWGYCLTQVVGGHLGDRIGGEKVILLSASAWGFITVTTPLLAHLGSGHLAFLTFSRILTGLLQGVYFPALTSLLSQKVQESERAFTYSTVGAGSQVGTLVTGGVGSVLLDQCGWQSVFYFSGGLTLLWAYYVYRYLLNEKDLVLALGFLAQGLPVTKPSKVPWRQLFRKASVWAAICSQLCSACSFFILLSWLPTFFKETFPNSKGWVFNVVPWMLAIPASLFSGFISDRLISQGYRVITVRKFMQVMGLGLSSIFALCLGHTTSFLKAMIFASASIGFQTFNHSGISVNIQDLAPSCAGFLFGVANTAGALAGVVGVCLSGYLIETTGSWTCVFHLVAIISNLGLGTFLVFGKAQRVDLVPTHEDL
Procedure: 20 μg of the purified mSLC17A9 protein and 0.5 mg of soybean-derived lipids were mixed, and the mixture was incubated at −80° C. for 5 minutes or longer. This mixture was thawed quickly by holding the tube in the hands, and was diluted 30-fold with a buffer solution containing 20 mM MOPS-Tris (pH 7.0), 0.15M sodium acetate, 2 mM magnesium acetate and 0.5 mM DTT. This dilution was centrifuged at 200,000×g at 4° C. for one hour, the supernatant was discarded, and the precipitate was resuspended in a buffer solution containing 20 mM MOPS-Tris (pH 7.0), 0.15M sodium acetate, 2 mM magnesium acetate and 0.5 mM DTT, to achieve reconstitution. […] The mixture was further incubated for 2 minutes. […] Furthermore, in an inhibitor test, an inhibitor at a predetermined concentration was added in the case of incubating the proteoliposomes.

[2] = biological target: T2, human SLC17A9 (Homo sapiens, UniProt Q9BYT1, N228S); assay: Nucleotide transport by human SLC17A9 reconstituted proteoliposomes (valinomycin-induced membrane potential, radiolabelled substrate); type: biochemical; conditions: for uptake of ADP and GTP into SLC17A9 reconstituted proteoliposomes over time: 100 μM each, FIG. 16; for effect of nucleotides on ATP transport: nucleotide 1 mM, FIG. 15
T2 construct: His6 (from pDEST10 vector); made in house; host or cells: insect cells, baculovirus system (Sf9 named for virus production)
T2 sequence (Q9BYT1 1-430 isoform Q9BYT1-2 N222S): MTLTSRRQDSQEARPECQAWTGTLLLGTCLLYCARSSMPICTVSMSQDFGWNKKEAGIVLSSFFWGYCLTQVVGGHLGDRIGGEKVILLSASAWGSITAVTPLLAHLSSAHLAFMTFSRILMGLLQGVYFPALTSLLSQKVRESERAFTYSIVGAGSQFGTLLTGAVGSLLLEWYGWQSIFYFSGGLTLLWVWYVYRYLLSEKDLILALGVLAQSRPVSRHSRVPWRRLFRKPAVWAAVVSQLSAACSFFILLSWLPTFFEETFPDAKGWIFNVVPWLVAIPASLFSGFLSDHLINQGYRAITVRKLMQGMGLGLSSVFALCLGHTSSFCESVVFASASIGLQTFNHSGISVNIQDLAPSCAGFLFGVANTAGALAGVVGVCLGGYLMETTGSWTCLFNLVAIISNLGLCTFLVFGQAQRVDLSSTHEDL
Procedure: (§1) 10 μg of purified SLC17A9 and 0.5 mg of soybean-derived lipids were mixed and incubated at −80° C. for 5 minutes or more. The mixture was thawed quickly by holding the tube in the hands, and was diluted 60-fold with a buffer solution containing 20 mM MOPS-Tris (pH 7.0), 0.15M sodium acetate, 2 mM magnesium acetate and 0.5 mM DTT. This dilution was centrifuged at 200,000×g at 4° C. for one hour, the supernatant was discarded, and the precipitate was resuspended in a buffer solution containing 20 mM MOPS-Tris (pH 7.0), 0.15M sodium acetate, 2 mM magnesium acetate and 0.5 mM DTT, to obtain SLC17A9 reconstituted proteoliposomes. As a control, liposomes without SLC17A9 were used.
The nucleotide transport activity was measured by the following procedure. The reconstituted proteoliposomes were incubated in a buffer solution containing 20 mM MOPS-Tris (pH 7.0), 0.15M potassium acetate, 2 mM magnesium acetate and 4 mM potassium chloride, at 27° C. for 2 minutes, and valinomycin was added thereto to a final concentration of 2 μM. The mixture was incubated for further 2 minutes. The point of addition of 0.1 mM [α-^32P]ATP (3.7 GBq/mmol) was defined as the initiation of activity measurement. At a predetermined time point, 130 μL of the reaction liquid was recovered and centrifuged through a Sephadex G-50 (fine) spin column at 760×g for 2 minutes. The uptake of ATP was measured by measuring the radioactivity included in the reaction liquid that had passed through the column using a liquid scintillation counter. In the measurement of the transport activity for ADP and GTP, [2,8-^3H]ADP (0.37 GBq/mmol) and [α-^32P]GTP (3.7 GBq/mmol) were used instead of ATP as the substrate.
In an experiment for an inhibitor, a predetermined concentration of an inhibitor was added upon incubation of the proteoliposomes.

[3] = substrate: Nc1ncnc2c1ncn2[C@@H]1O[C@H](COP(=O)(O)OP(=O)(O)OP(=O)(O)O)[C@@H](O)[C@H]1O; assay: purified protein, by the assay type; conditions: other: reconstituted mSLC17A9, membrane potential-dependent transport, calculated using KaleidaGraph; pH 7.0; 27.0 °C
[4] = substrate: Nc1ncnc2c1ncn2[C@@H]1O[C@H](COP(=O)(O)OP(=O)(O)OP(=O)(O)O)[C@@H](O)[C@H]1O; assay: cells, lysate or membranes named; conditions: other: human SLC17A9 proteoliposomes, ATP uptake at various concentrations; pH 7.0; 27.0 °C
[5] = test system: SLC17 family transporter proteins; assay: ATP uptake by other SLC17 family proteins reconstituted like SLC17A9; type: biochemical; conditions: 0.1 mM [α-32P]ATP, uptake after 2 minutes, relative to SLC17A9 protein
Procedure: as §1
The nucleotide transport activity was measured by the following procedure. The reconstituted proteoliposomes were incubated in a buffer solution containing 20 mM MOPS-Tris (pH 7.0), 0.15M potassium acetate, 2 mM magnesium acetate and 4 mM potassium chloride, at 27° C. for 2 minutes, and valinomycin was added thereto to a final concentration of 2 μM. The mixture was incubated for further 2 minutes. […] At a predetermined time point, 130 μL of the reaction liquid was recovered and centrifuged through a Sephadex G-50 (fine) spin column at 760×g for 2 minutes.
Each of the transporter proteins that belong to the SLC17 family was purified in the same manner as in the case of SLC17A9, and was reconstituted according to the technique of Example 11.

`Nc1nc2c(ncn2[C@@H]2O[C@H](COP(=O)(O)OP(=O)(O)OP(=O)(O)O)[C@@H](O)[C@H]2O)c(=O)[nH]1` [GTP] was tested. Which “inhibition of radioactive ATP uptake” value [1] did it give?
Its value is “compete with ATP”.

What about the “uptake of ADP and GTP into SLC17A9 reconstituted proteoliposomes over time” value [2] of the same molecule?
The value was “actually taken up”.

And the “effect of nucleotides on ATP transport” value [2]?
The value was “recognized as transport substrates”.

What does the source list for `Nc1ncnc2c1ncn2[C@@H]1O[C@H](COP(=O)(O)OP(=O)(O)O)[C@@H](O)[C@H]1O` [ADP, adenosine diphosphate]?
inhibition of radioactive ATP uptake [1]: compete with ATP; uptake of ADP and GTP into SLC17A9 reconstituted proteoliposomes over time [2]: actually taken up; effect of nucleotides on ATP transport [2]: recognized as transport substrates

B1: mouse SLC17A9 (mSLC17A9) (Mus musculus) (protein)
chain: MPSQRSSLMQPIPEETRKTPSAAAEDTRWSRPECQAWTGILLLGTCLLYCARVTMPVCTVAMSQDFGWNKKEAGIVLSSFFWGYCLTQVVGGHLGDRIGGEKVILLSASAWGFITVTTPLLAHLGSGHLAFLTFSRILTGLLQGVYFPALTSLLSQKVQESERAFTYSTVGAGSQVGTLVTGGVGSVLLDQCGWQSVFYFSGGLTLLWAYYVYRYLLNEKDLVLALGFLAQGLPVTKPSKVPWRQLFRKASVWAAICSQLCSACSFFILLSWLPTFFKETFPNSKGWVFNVVPWMLAIPASLFSGFISDRLISQGYRVITVRKFMQVMGLGLSSIFALCLGHTTSFLKAMIFASASIGFQTFNHSGISVNIQDLAPSCAGFLFGVANTAGALAGVVGVCLSGYLIETTGSWTCVFHLVAIISNLGLGTFLVFGKAQRVDLVPTHEDL
B1 was tested. Which Km [3] did it give?
The Km was 230 µM.

And the Vmax [3]?
The Vmax was 23.8 nmol/min/mg of protein.

B2: human SLC17A9 (Homo sapiens; N228S) (protein)
chain: MTLTSRRQDSQEARPECQAWTGTLLLGTCLLYCARSSMPICTVSMSQDFGWNKKEAGIVLSSFFWGYCLTQVVGGHLGDRIGGEKVILLSASAWGSITAVTPLLAHLSSAHLAFMTFSRILMGLLQGVYFPALTSLLSQKVRESERAFTYSIVGAGSQFGTLLTGAVGSLLLEWYGWQSIFYFSGGLTLLWVWYVYRYLLSEKDLILALGVLAQSRPVSRHSRVPWRRLFRKPAVWAAVVSQLSAACSFFILLSWLPTFFEETFPDAKGWIFNVVPWLVAIPASLFSGFLSDHLINQGYRAITVRKLMQGMGLGLSSVFALCLGHTSSFCESVVFASASIGLQTFNHSGISVNIQDLAPSCAGFLFGVANTAGALAGVVGVCLGGYLMETTGSWTCLFNLVAIISNLGLCTFLVFGQAQRVDLSSTHEDL
Which Km [4] does the source give for B2 here?
The Km was 800 µM.

B3: VGLUT3: SLC17 family transporter protein, gene SLC17A8 (protein, UniProt Q8NDX2 1-589, looked up)
Vesicular glutamate …: MPFKAFDTFKEKILKPGKEGVKNAVGDSLGILQRKIDGTTEEEDNIELNEEGRPVQTSRPSPPLCDCHCCGLPKRYIIAIMSGLGFCISFGIRCNLGVAIVEMVNNSTVYVDGKPEIQTAQFNWDPETVGLIHGSFFWGYIMTQIPGGFISNKFAANRVFGAAIFLTSTLNMFIPSAARVHYGCVMCVRILQGLVEGVTYPACHGMWSKWAPPLERSRLATTSFCGSYAGAVVAMPLAGVLVQYIGWSSVFYIYGMFGIIWYMFWLLQAYECPAAHPTISNEEKTYIETSIGEGANVVSLSKFSTPWKRFFTSLPVYAIIVANFCRSWTFYLLLISQPAYFEEVFGFAISKVGLLSAVPHMVMTIVVPIGGQLADYLRSRQILTTTAVRKIMNCGGFGMEATLLLVVGFSHTKGVAISFLVLAVGFSGFAISGFNVNHLDIAPRYASILMGISNGVGTLSGMVCPLIVGAMTRHKTREEWQNVFLIAALVHYSGVIFYGVFASGEKQEWADPENLSEEKCGIIDQDELAEEIELNHESFASPKKKMSYGATSQNCEVQKKEWKGQRGATLDEEELTSYQNEERNFSTIS
How did the “ATP Transport (%)” value [5] turn out when B3 was run?
The value was 7.1 ± 2.1%.

B4: VGLUT2: SLC17 family transporter protein, gene SLC17A6 (protein, UniProt Q9P2U8 1-582, looked up)
Vesicular glutamate …: MESVKQRILAPGKEGLKNFAGKSLGQIYRVLEKKQDTGETIELTEDGKPLEVPERKAPLCDCTCFGLPRRYIIAIMSGLGFCISFGIRCNLGVAIVDMVNNSTIHRGGKVIKEKAKFNWDPETVGMIHGSFFWGYIITQIPGGYIASRLAANRVFGAAILLTSTLNMLIPSAARVHYGCVIFVRILQGLVEGVTYPACHGIWSKWAPPLERSRLATTSFCGSYAGAVIAMPLAGILVQYTGWSSVFYVYGSFGMVWYMFWLLVSYESPAKHPTITDEERRYIEESIGESANLLGAMEKFKTPWRKFFTSMPVYAIIVANFCRSWTFYLLLISQPAYFEEVFGFEISKVGMLSAVPHLVMTIIVPIGGQIADFLRSKQILSTTTVRKIMNCGGFGMEATLLLVVGYSHTRGVAISFLVLAVGFSGFAISGFNVNHLDIAPRYASILMGISNGVGTLSGMVCPIIVGAMTKNKSREEWQYVFLIAALVHYGGVIFYAIFASGEKQPWADPEETSEEKCGFIHEDELDEETGDITQNYINYGTTKSYGATTQANGGWPSGWEKKEEFVQGEVQDSHSYKDRVDYS
Which “ATP Transport (%)” value [5] does the source give for B4 here?
The value was 0.1 ± 0.2%.

B5: VGLUT1: SLC17 family transporter protein, gene SLC17A7 (protein, UniProt Q9P2U7 1-560, looked up)
Vesicular glutamate …: MEFRQEEFRKLAGRALGKLHRLLEKRQEGAETLELSADGRPVTTQTRDPPVVDCTCFGLPRRYIIAIMSGLGFCISFGIRCNLGVAIVSMVNNSTTHRGGHVVVQKAQFSWDPETVGLIHGSFFWGYIVTQIPGGFICQKFAANRVFGFAIVATSTLNMLIPSAARVHYGCVIFVRILQGLVEGVTYPACHGIWSKWAPPLERSRLATTAFCGSYAGAVVAMPLAGVLVQYSGWSSVFYVYGSFGIFWYLFWLLVSYESPALHPSISEEERKYIEDAIGESAKLMNPLTKFSTPWRRFFTSMPVYAIIVANFCRSWTFYLLLISQPAYFEEVFGFEISKVGLVSALPHLVMTIIVPIGGQIADFLRSRRIMSTTNVRKLMNCGGFGMEATLLLVVGYSHSKGVAISFLVLAVGFSGFAISGFNVNHLDIAPRYASILMGISNGVGTLSGMVCPIIVGAMTKHKTREEWQYVFLIASLVHYGGVIFYGVFASGEKQPWAEPEEMSEEKCGFVGHDQLAGSDDSEMEDEAEPPGAPPAPPPSYGATHSTFQPPRPPPPVRDY
With B5 as the molecule, how does the “ATP Transport (%)” value [5] read?
The value was 1.7 ± 0.7%.
